According to patent publication US9775354B2, “Herbicidal composition having improved plant safety” (priority 2013, dated 2017):

Legend:
Assay type in all cases: in vivo
[1] = system: timothy (Phleum pratense L.); experiment: Test Example 4: growth inhibition of timothy after foliar treatment (pot test); conditions: compound A 100 g/ha, compound B not added; sixth day after treatment
Source text: (§1) On the seventh day after treatment, the state of growth of the wheat was visually observed to determine the growth inhibition rate (%) in accordance with the following evaluation standards. The results are shown in Table 1. • Growth inhibition rate (%)=0 (equivalent to the non-treated area) to 100 (complete kill)
(§2) Upland field soil was put into a 1/1,000,000 ha pot, and seeds of timothy (Phleum pratense L.) were sown. When the timothy reached 1.6 to 2.0-leaf stage, predetermined amounts of compound A and isoxadifen-ethyl, mefenpyr-diethyl or cloquintocet-mexyl were diluted with water (in an amount corresponding to 300 L/ha) containing 0.5 vol % of an agricultural adjuvant (tradename: Destiny HC, manufactured by Winfield Solutions, LLC) and applied for foliar treatment by a small sprayer.
On the sixth day after treatment, the state of growth of the timothy was visually observed to evaluate the growth inhibition rate (%) in the same manner as in the above Test Example 1.

[2] = system: wheat (Triticum aestivum L.); experiment: Test Example 1: growth inhibition of wheat after foliar treatment (pot test); conditions: compound B not added, seventh day after treatment
Source text: Upland field soil was put into a 1/1,000,000 ha pot, and seeds of wheat (Triticum aestivum L.) were sown. […] Destiny HC, manufactured by Winfield Solutions, LLC.) and applied for foliar treatment by a small sprayer. On the seventh day after treatment, the state of growth of the wheat was visually observed to determine the growth inhibition rate (%) in accordance with the following evaluation standards.

[3] = system: kentucky bluegrass (Poa pratensis L.); experiment: Test Example 6: chlorosis in kentucky bluegrass after foliar treatment (pot test); conditions: compound A 100 g/ha, compound B not added; seventh day after treatment; degree 0 to 5.0
Procedure: Degree of chlorosis=0 (equal to the non-treated area) to 5.0 (complete chlorosis)
as §2, with “kentucky bluegrass (Poa pratensis” for “timothy (Phleum pratense”, “kentucky bluegrass” for “timothy”, “2-leaf” for “1.6 to 2.0-leaf”
On the seventh day after treatment, chlorosis which developed in the kentucky bluegrass was evaluated in the same manner as in the above Test Example 2.

[4] = system: perennial ryegrass (Lolium perenne L.); experiment: Test Example 3: chlorosis in perennial ryegrass after foliar treatment (pot test); conditions: compound A 100 g/ha, compound B not added; sixth day after treatment; degree 0 to 5.0
Source text: Degree of chlorosis=0 (equal to the non-treated area) to 5.0 (complete chlorosis) Upland field soil was put into a 1/1,000,000 ha pot, and seeds of perennial ryegrass (Lolium perenne L.) were sown. […] Destiny HC, manufactured by Winfield Solutions, LLC.) and applied for foliar treatment by a small sprayer.

[5] = system: bentgrass (Agrostis stolonifera L.); experiment: Test Example 5: growth inhibition of bentgrass after foliar treatment (pot test); conditions: compound A 100 g/ha, compound B not added; 24th day after treatment
Source text: as §1
as §2, with “turf” for “seeds”, “bentgrass (Agrostis stolonifera” for “timothy (Phleum pratense”, “was put.” for “were sown.”, “bentgrass” for “timothy”, “a height of […],” for “1.6 to 2.0-leaf stage,”, “and” for “and isoxadifen-ethyl,”
On the 24th day after treatment, the state of growth of the bentgrass was visually observed to determine the growth inhibition rate (%) in the same manner as in the above Test Example 1.

## CCn1ncc(C(=O)c2ccc(S(C)(=O)=O)c(OCCOC)c2C)c1OC(C)OC(=O)OC (stereo not drawn) [Compound A, 1-(1-ethyl-4-(3-(2-methoxyethoxy)-2-methyl-4-(methylsulfonyl)benzoyl)-1H-pyrazol-5-yloxy)ethyl methyl carbonate]
[1]
  Growth inhibition rate (%) of timothy: 10%
[2]; compound A 100 g/ha
  Growth inhibition rate (%) of wheat: 40%
[2]; compound A 150 g/ha
  Growth inhibition rate (%) of wheat: 40%
[3]
  Chlorosis in kentucky bluegrass: 1.7
[4]
  Chlorosis in perennial ryegrass: 0.4
[5]
  Growth inhibition of bentgrass (%): 50%
